# Results from paper PMC2112634 (The Journal of Cell Biology, 1983).
# Like-named read-outs stand apart in the source and are kept apart here.
# T1: CCK-binding sites on rat pancreatic plasma membranes (Rattus norvegicus, UniProt P30551)
# T1 sequence (P30551 1-444): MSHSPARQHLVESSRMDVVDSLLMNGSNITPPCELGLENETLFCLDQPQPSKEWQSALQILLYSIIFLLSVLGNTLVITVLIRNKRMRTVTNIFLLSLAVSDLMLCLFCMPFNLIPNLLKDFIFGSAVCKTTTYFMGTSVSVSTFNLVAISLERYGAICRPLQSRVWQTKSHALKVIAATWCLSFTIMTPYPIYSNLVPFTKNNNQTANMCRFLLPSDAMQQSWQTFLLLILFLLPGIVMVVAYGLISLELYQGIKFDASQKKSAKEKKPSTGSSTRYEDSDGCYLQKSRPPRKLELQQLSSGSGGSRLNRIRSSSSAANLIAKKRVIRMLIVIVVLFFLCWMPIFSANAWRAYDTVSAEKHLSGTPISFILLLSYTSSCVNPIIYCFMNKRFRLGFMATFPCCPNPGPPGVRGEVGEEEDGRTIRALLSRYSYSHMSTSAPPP
# T2: CCK-binding site (Mr 85,000 protein) of rat pancreatic plasma membranes (Rattus norvegicus, UniProt P30551)
# T2 sequence (P30551 1-444): T1 sequence (P30551 1-444)
# B1: cholecystokinin (peptide, UniProt P06307 21-115, looked up)
# Cholecystokinin: QPVPPADPAGSGLQRAEEAPRRQLRVSQRTDGESRAHLGALLARYIQQARKAPSGRMSIVKNLQNLDPSHRISDRDYMGWMDFGRRSAEEYEYPS
# modifications: Cholecystokinin
# Assays:
# [1] = tested on: CCK-binding sites on rat pancreatic acinar cells; experiment: Light microscopic autoradiography of pancreatic acini; type: cell-based; conditions: ~0.1 nM 125I-CCK-33, 15 min at 37C; Fig. 2a; similar results at 2 min
# [2] = tested on: CCK-binding sites on rat pancreatic acinar cells; type: cell-based
# [3] = target: T1, CCK-binding sites on rat pancreatic plasma membranes; experiment: Competitive inhibition of 125I-CCK-33 binding to pancreatic plasma membranes
# [4] = tested on: rabbit anti-CCK IgG (antiserum No. L-48); experiment: Affinity labeling of anti-CCK antibodies; type: binding; conditions: 0.07 nM 125I-CCK-33, 24 h at 4C, 1 mM DSS; Fig. 1 lane a
# [5] = 125I-labeled Bolton-Hunter reagent; cited from earlier work
# [6] = target: T2, CCK-binding site (Mr 85,000 protein) of rat pancreatic plasma membranes; experiment: Affinity labeling; conditions: micromolar concentrations of competitor; unpublished results
# [7] = tested on: CCK-binding sites of rat pancreatic plasma membranes; conditions: ultraviolet irradiation cross-linking; cited from earlier work
# [8] = tested on: CCK receptor in rat pancreatic acini; conditions: rat pancreatic acinar cell; cited from earlier work
# [9] = tested on: CCK receptors of mouse pancreatic acini; conditions: electron microscopic autoradiography; cited from earlier work
# [10] = 0.1 nM 125I-CCK-33, 2 or 15 min, 37C, % of total grains
# [11] = 2 min, 37C, 0.1 nM 125I-CCK-33, mean ± SEM, 17 micrographs, Table I
# [12] = 15 min, 37C, 0.1 nM 125I-CCK-33, mean ± SEM, 18 micrographs, Table I
molecule,measurement,setting,value
"125I-CCK-33: CCK-33 acylated with 125I-labeled Bolton-Hunter reagent (KAPSGRVSMIKNLQSLDPSHRISDRDYMGWMDF; Cholecystokinin-33 125I-Bolton-Hunter labeled; UniProt P01356 70-102, looked up)",distribution of autoradiographic grains (light microscopy),[1],primarily delineated the basal and lateral boundaries of the acinar cells
same,grains over cytoplasm (summary),[2]; [10],~ 30%
same,grains over embedding medium (summary),[2]; [10],5- 8%
same,grains over nucleus (summary),[2]; [10],1-2%
same,grains within 1 HD of the lateral and basal plasmalemma,[2]; [10],approximately 60%
same,Basal PM grain density,[2]; [11],2.57 0.08 grains/µm2
same,"Cytoplasm, % total grains",[2]; [11],34.0 ± 1.3 % total grains
same,Lateral PM grain density,[2]; [11],1.10 0.05 grains/µm2
same,"Lateral PM, % total grains",[2]; [11],12.1 ± 0.4 % total grains
same,distribution of grains at 4C,"[2]; 2 min or 15 min at 4C, data not shown, compared with 37C",Qualitatively similar results
same,relative grain density over cytoplasm or nucleus compared to embedding medium,"[2]; 15 min, 37C",no statistically significant increase
same,Apical PM grain density,[2]; [12],0.11 ± 0.02 grains/µm2
same,"Apical PM, % total grains",[2]; [12],0.1 % total grains
same,Basal PM grain density,[2]; [12],2.46 0.11 grains/µm2
same,"Basal PM, % total grains",[2]; [12],34.8 0.6 % total grains
same,"Cytoplasm, % total grains",[2]; [12],30.0 ± 0.8 % total grains
same,"Embedding medium, % total grains",[2]; [12],8.1 0.6 % total grains
same,Lateral PM grain density,[2]; [12],2.32 0.07 grains/µm2
same,"Lateral PM, % total grains",[2]; [12],25.5 ± 0.6 % total grains
same,specific binding sites on centroacinar or ductular cells,"[2]; autoradiography, 125I-CCK-33",no apparent specific
same,relative grain density over cytoplasm and nucleus (summary),"[2]; either time point, 37C",never exceeded unity
same,peptide released from binding sites during cross-linking and subsequent washing,[3],< 5%
same,labeling of heavy and light chains of anti-CCK IgG,[4],labeling of the heavy and light chains of anti-CCK IgG was obtained
same,secretagogue activity after Bolton-Hunter acylation,[5],retention of secretagogue activity
insulin: polypeptide hormone tested at micromolar concentration as specificity control,effect on labeling of membrane proteins by 125I-CCK-33,[6],unaffected
secretin: peptide tested at micromolar concentration as specificity control,effect on labeling of membrane proteins by 125I-CCK-33,[6],unaffected
B1,Mr of specifically labeled polypeptide,[7],"76,000"
same,high affinity binding sites per cell,[8],approximately 650 binding sites per cell
same,low affinity binding sites per cell,[8],"~100,000 binding sites per cell"
same,localization of CCK receptors,[9],localized to the basolateral plasmalemma of mouse pancreatic acini
